Reference: PubChem BioAssay (NCI)
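Compound exposure: 48 hours, 5 concentrations, 96-well plates. GI50: concentration for 50% inhibition of growth. TGI marks complete inhibition of growth.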

How the values were obtained:
Experiment in all cases: NCI anticancer screen, dose series, 48 h
[1] = system: NCI-H460 lung
[2] = system: CAKI-1 renal
[3] = system: SK-MEL-2 melanoma
[4] = system: RXF 393 renal
[5] = system: OVCAR-3 ovarian
[6] = system: HOP-92 NSCLC
[7] = system: SNB-19 CNS
[8] = system: PC-3 prostate
[9] = system: HL-60(TB) leukemia
[10] = system: CCRF-CEM leukemia
[11] = system: SK-MEL-5 melanoma
[12] = system: HT29 colon
[13] = system: SW-620 colon
[14] = system: SF-539 CNS
[15] = system: UACC-257 melanoma
[16] = system: A549 NSCLC
[17] = system: U251 CNS
[18] = system: MDA-MB-231 breast
[19] = system: SNB-75 CNS
[20] = system: KM12 colon
[21] = system: UACC-62 melanoma
[22] = system: OVCAR-8 ovarian
[23] = system: ACHN renal
[24] = system: MALME-3M melanoma
[25] = system: HCC-2998 colon
[26] = system: NCI-H23 lung
[27] = system: SF-295 CNS
[28] = system: SN12C renal
[29] = system: SR leukemia
[30] = system: HCT-15 colon
[31] = system: T-47D breast
[32] = system: HS 578T breast
[33] = system: 786-0 renal
[34] = system: MCF7 breast
[35] = system: TK-10 renal
[36] = system: OVCAR-4 ovarian
[37] = system: SK-OV-3 ovarian
[38] = system: MDA-MB-435
[39] = system: IGROV1 ovarian
[40] = system: A498 renal
[41] = system: RPMI-8226 leukemia
[42] = system: UO-31 renal
[43] = system: HCT-116 colon
[44] = system: HOP-62 NSCLC
[45] = system: K-562 leukemia
[46] = system: SF-268 CNS
[47] = system: OVCAR-5 ovarian
[48] = system: COLO 205 colon
[49] = system: MOLT-4 leukemia
[50] = system: NCI/ADR-RES ovarian
[51] = system: LOX IMVI melanoma
[52] = system: BT-549 breast
[53] = system: SK-MEL-28 melanoma
[54] = system: NCI-H226 lung
[55] = system: NCI-H522 lung
[56] = system: DU-145 prostate
[57] = system: M14 melanoma
[58] = system: EKVX NSCLC

NNc1c2ccccc2nc2ccccc12
GI50 [1]: 2.48 µM
TGI [1]: 15.5 µM
GI50 [2]: 3.29 µM
TGI [2]: 19.4 µM
GI50 [3]: 12.5 µM
TGI [3]: 29.2 µM
GI50 [4]: 7.4 µM
TGI [4]: 24.4 µM
GI50 [5]: 5.85 µM
TGI [5]: 27.3 µM
GI50 [6]: 5.19 µM
TGI [6]: 43.6 µM
GI50 [7]: 5.89 µM
TGI [7]: > 100 µM
GI50 [8]: 2.34 µM
TGI [8]: 37.3 µM
GI50 [9]: 1.78 µM
TGI [9]: 16.9 µM
GI50 [10]: 0.688 µM
TGI [10]: > 100 µM
GI50 [11]: 2.14 µM
TGI [11]: 13.3 µM
GI50 [12]: 3.28 µM
TGI [12]: 16.1 µM
GI50 [13]: 4.06 µM
TGI [13]: 27.4 µM
GI50 [14]: 3.73 µM
TGI [14]: 22.9 µM
GI50 [15]: 4.06 µM
TGI [15]: 36.2 µM
GI50 [16]: 5.29 µM
TGI [16]: > 100 µM
GI50 [17]: 4.89 µM
TGI [17]: 40.6 µM
GI50 [18]: 10.7 µM
TGI [18]: 48.6 µM
GI50 [19]: 2.67 µM
TGI [19]: 17.8 µM
GI50 [20]: 4.55 µM
TGI [20]: 27.8 µM
GI50 [21]: 3.44 µM
TGI [21]: 19.3 µM
GI50 [22]: 5.09 µM
TGI [22]: 30.7 µM
GI50 [23]: 5.31 µM
TGI [23]: 33.9 µM
GI50 [24]: 5.03 µM
TGI [24]: 36.1 µM
GI50 [25]: 7.59 µM
TGI [25]: 63.2 µM
GI50 [26]: 1.37 µM
TGI [26]: 33 µM
GI50 [27]: 1.88 µM
TGI [27]: 14.9 µM
GI50 [28]: 6.44 µM
TGI [28]: 56.7 µM
GI50 [29]: 3.4 µM
TGI [29]: 19.8 µM
GI50 [30]: 4.2 µM
TGI [30]: 34.2 µM
GI50 [31]: 6.08 µM
TGI [31]: 73.4 µM
GI50 [32]: 16 µM
TGI [32]: > 100 µM
GI50 [33]: 6.2 µM
TGI [33]: 29.4 µM
GI50 [34]: 3.77 µM
TGI [34]: 33.7 µM
GI50 [35]: 8.32 µM
TGI [35]: 26.7 µM
GI50 [36]: 2.62 µM
TGI [36]: 19.4 µM
GI50 [37]: 6.91 µM
TGI [37]: > 100 µM
GI50 [38]: 5.08 µM
TGI [38]: 23.4 µM
GI50 [39]: 3.07 µM
TGI [39]: 20.8 µM
GI50 [40]: 1.43 µM
TGI [40]: 17.5 µM
GI50 [41]: 0.558 µM
TGI [41]: 17.4 µM
GI50 [42]: 2.76 µM
TGI [42]: 19.5 µM
GI50 [43]: 3.99 µM
TGI [43]: 17.6 µM
GI50 [44]: 5.56 µM
TGI [44]: 79 µM
GI50 [45]: 3.32 µM
TGI [45]: 64.7 µM
GI50 [46]: 5.94 µM
TGI [46]: > 100 µM
GI50 [47]: 15.8 µM
TGI [47]: 54.1 µM
GI50 [48]: 4.63 µM
TGI [48]: 18.3 µM
GI50 [49]: 0.897 µM
TGI [49]: > 100 µM
GI50 [50]: 3.76 µM
TGI [50]: 27.4 µM
GI50 [51]: 3.62 µM
TGI [51]: 22.4 µM
GI50 [52]: 4.15 µM
TGI [52]: 36.8 µM
GI50 [53]: 10.7 µM
TGI [53]: 60.7 µM
GI50 [54]: 4.26 µM
TGI [54]: 43 µM
GI50 [55]: 2.59 µM
TGI [55]: 14.4 µM
GI50 [56]: 10.9 µM
TGI [56]: > 100 µM
GI50 [57]: 6.11 µM
TGI [57]: 21.8 µM
GI50 [58]: 1.89 µM
TGI [58]: 26.8 µM

C=CCCCOC1[C@H](OCc2ccccc2)C(OCc2ccccc2)C(OC)O[C@@H]1CNC(=O)c1cccc(I)c1 (some centres not stated)
GI50 [1]: 2.91 µM
TGI [1]: 8.64 µM
GI50 [2]: 11.5 µM
TGI [2]: > 100 µM
GI50 [3]: 48.1 µM
TGI [3]: > 100 µM
GI50 [4]: 3.91 µM
TGI [4]: > 100 µM
GI50 [5]: 6.46 µM
TGI [5]: > 100 µM
GI50 [6]: 5.08 µM
TGI [6]: > 100 µM
GI50 [7]: 6.35 µM
TGI [7]: > 100 µM
GI50 [8]: 2.19 µM
TGI [8]: > 100 µM
GI50 [9]: 2.83 µM
TGI [9]: 21.3 µM
GI50 [10]: 3.55 µM
TGI [10]: > 100 µM
GI50 [11]: 2.2 µM
TGI [11]: 16.2 µM
GI50 [12]: 4.54 µM
TGI [12]: > 100 µM
GI50 [13]: 4.62 µM
TGI [13]: > 100 µM
GI50 [14]: 4.38 µM
TGI [14]: 76.4 µM
GI50 [15]: 8.82 µM
TGI [15]: > 100 µM
GI50 [16]: 8.17 µM
TGI [16]: > 100 µM
GI50 [17]: 4.66 µM
TGI [17]: > 100 µM
GI50 [18]: 8.34 µM
TGI [18]: > 100 µM
GI50 [19]: 3.91 µM
TGI [19]: 56.5 µM
GI50 [20]: 6.49 µM
TGI [20]: > 100 µM
GI50 [21]: 3.8 µM
TGI [21]: > 100 µM
GI50 [22]: 26 µM
TGI [22]: > 100 µM
GI50 [23]: 5.76 µM
TGI [23]: > 100 µM
GI50 [24]: 5.43 µM
TGI [24]: > 100 µM
GI50 [25]: > 100 µM
TGI [25]: > 100 µM
GI50 [26]: 33.6 µM
TGI [26]: > 100 µM
GI50 [27]: 4.14 µM
TGI [27]: > 100 µM
GI50 [28]: 8.53 µM
TGI [28]: > 100 µM
GI50 [29]: 2.9 µM
TGI [29]: 14.6 µM
GI50 [30]: 3.55 µM
TGI [30]: > 100 µM
GI50 [31]: 4.74 µM
TGI [31]: > 100 µM
GI50 [32]: 9.32 µM
TGI [32]: > 100 µM
GI50 [33]: 3.78 µM
TGI [33]: > 100 µM
GI50 [34]: 3.5 µM
TGI [34]: > 100 µM
GI50 [35]: 5.3 µM
TGI [35]: > 100 µM
GI50 [36]: 14.4 µM
TGI [36]: > 100 µM
GI50 [37]: 5.45 µM
TGI [37]: > 100 µM
GI50 [38]: 5.31 µM
TGI [38]: > 100 µM
GI50 [39]: 17.7 µM
TGI [39]: > 100 µM
GI50 [40]: 7.2 µM
TGI [40]: 72.8 µM
GI50 [41]: 2.57 µM
TGI [41]: 9.19 µM
GI50 [42]: 9.51 µM
TGI [42]: > 100 µM
GI50 [43]: 4.3 µM
TGI [43]: > 100 µM
GI50 [44]: > 100 µM
TGI [44]: > 100 µM
GI50 [45]: 2.7 µM
TGI [45]: > 100 µM
GI50 [46]: 5.38 µM
TGI [46]: > 100 µM
GI50 [47]: > 100 µM
TGI [47]: > 100 µM
GI50 [48]: 5.02 µM
TGI [48]: > 100 µM
GI50 [49]: 1.9 µM
TGI [49]: > 100 µM
GI50 [50]: 5.26 µM
TGI [50]: > 100 µM
GI50 [51]: 2.81 µM
TGI [51]: > 100 µM
GI50 [52]: 8.79 µM
TGI [52]: > 100 µM
GI50 [53]: 8.51 µM
TGI [53]: > 100 µM
GI50 [54]: 21.9 µM
TGI [54]: > 100 µM
GI50 [55]: 33 µM
TGI [55]: > 100 µM
GI50 [56]: 8.52 µM
TGI [56]: > 100 µM
GI50 [57]: 60.2 µM
TGI [57]: > 100 µM
GI50 [58]: 3.2 µM
TGI [58]: > 100 µM
